Laboratory results: ChEMBL document CHEMBL3351757, “Design and synthesis of novel and highly-active pan-histone deacetylase (pan-HDAC) inhibitors” (Bioorg Med Chem, 2014)

Key:
[1] = molecular target: T1, Histone deacetylase (Rattus norvegicus) (UniProt Q6P6W3+Q99P99+Q99P96+Q4QQW4+Q99P97+Q5RJZ2+B1WBY8); details: at 10 µM
Description: Inhibition of rat liver HDAC at 10 uM pre-incubated for 15 mins before Boc-Lys(Ac)-AMC substrate addition and measured after 30 mins by fluorometry

Histone deacetylase 8 = molecular target: T2, Histone deacetylase 8 (Homo sapiens, UniProt Q9BY41); experiment: Inhibition of human HDAC8 pre-incubated for 30 mins before substrate addition and measured after 30 mins by HDAC-Glo I/II assay
T2 sequence (Q9BY41 whole entry): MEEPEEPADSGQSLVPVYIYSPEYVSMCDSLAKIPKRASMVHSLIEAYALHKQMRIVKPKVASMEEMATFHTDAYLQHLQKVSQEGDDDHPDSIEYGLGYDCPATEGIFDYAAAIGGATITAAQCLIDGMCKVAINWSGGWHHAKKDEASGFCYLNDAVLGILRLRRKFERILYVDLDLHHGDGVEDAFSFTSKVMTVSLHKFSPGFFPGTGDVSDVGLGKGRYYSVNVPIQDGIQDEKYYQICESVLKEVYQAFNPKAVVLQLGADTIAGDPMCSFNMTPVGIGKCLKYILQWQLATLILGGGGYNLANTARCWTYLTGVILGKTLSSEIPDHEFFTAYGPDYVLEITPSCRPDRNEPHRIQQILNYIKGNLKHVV

Histone deacetylase 9 = Histone deacetylase 9 (Homo sapiens, UniProt Q9UKV0); experiment: Inhibition of human HDAC9 pre-incubated for 30 mins before substrate addition and measured after 30 mins by HDAC-Glo I/II assay
Histone deacetylase 9, sequence (Q9UKV0 whole entry): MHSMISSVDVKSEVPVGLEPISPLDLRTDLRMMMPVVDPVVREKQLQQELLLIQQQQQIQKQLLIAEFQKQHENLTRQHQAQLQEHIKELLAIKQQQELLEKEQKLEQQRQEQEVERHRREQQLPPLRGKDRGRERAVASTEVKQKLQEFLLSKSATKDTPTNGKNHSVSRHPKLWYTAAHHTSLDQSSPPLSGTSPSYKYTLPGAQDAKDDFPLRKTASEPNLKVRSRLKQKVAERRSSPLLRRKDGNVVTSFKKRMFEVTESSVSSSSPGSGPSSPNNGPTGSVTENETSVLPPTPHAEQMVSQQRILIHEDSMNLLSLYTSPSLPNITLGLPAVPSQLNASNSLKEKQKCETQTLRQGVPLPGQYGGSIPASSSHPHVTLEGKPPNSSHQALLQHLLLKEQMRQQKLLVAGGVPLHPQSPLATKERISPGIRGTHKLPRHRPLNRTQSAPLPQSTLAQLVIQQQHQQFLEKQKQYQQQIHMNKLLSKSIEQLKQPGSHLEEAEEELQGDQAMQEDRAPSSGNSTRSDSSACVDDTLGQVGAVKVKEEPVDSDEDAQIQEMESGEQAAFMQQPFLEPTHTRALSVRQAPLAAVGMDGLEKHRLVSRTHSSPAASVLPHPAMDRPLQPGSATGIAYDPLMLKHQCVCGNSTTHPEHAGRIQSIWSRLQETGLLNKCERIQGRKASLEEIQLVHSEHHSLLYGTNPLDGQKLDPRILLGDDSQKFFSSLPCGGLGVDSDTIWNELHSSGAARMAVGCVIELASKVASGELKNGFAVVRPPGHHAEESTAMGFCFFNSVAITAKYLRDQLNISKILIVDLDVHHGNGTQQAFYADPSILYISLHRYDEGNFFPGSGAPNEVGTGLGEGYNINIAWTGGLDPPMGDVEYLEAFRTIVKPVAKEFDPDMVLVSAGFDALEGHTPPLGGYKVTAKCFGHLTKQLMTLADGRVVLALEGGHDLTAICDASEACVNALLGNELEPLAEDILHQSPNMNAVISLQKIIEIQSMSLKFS

Histone deacetylase 2 = Histone deacetylase 2 (Homo sapiens, UniProt Q92769); experiment: Inhibition of human HDAC2 pre-incubated for 30 mins before substrate addition and measured after 30 mins by HDAC-Glo I/II assay
Histone deacetylase 2, sequence (Q92769 whole entry): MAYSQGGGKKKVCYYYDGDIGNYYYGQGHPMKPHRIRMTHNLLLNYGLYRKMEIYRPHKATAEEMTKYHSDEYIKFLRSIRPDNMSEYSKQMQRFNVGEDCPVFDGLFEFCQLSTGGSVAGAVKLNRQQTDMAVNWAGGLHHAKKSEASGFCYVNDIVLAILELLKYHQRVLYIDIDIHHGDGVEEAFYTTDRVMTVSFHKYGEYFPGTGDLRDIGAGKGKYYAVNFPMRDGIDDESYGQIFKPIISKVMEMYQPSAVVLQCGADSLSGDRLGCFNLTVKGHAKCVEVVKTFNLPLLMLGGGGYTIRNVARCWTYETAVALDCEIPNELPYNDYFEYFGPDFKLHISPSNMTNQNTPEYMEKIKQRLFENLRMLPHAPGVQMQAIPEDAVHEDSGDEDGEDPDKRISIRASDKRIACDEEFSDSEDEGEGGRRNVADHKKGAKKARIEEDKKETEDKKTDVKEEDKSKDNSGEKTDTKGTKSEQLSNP

[2] = molecular target: T1, Histone deacetylase (Rattus norvegicus); details: at 0.1 µM
Description: Inhibition of rat liver HDAC at 0.1 uM pre-incubated for 15 mins before Boc-Lys(Ac)-AMC substrate addition and measured after 30 mins by fluorometry

Histone deacetylase 4 = Histone deacetylase 4 (Homo sapiens, UniProt P56524); experiment: Inhibition of human HDAC4 pre-incubated for 30 mins before substrate addition and measured after 30 mins by HDAC-Glo I/II assay
Histone deacetylase 4, sequence (P56524 whole entry): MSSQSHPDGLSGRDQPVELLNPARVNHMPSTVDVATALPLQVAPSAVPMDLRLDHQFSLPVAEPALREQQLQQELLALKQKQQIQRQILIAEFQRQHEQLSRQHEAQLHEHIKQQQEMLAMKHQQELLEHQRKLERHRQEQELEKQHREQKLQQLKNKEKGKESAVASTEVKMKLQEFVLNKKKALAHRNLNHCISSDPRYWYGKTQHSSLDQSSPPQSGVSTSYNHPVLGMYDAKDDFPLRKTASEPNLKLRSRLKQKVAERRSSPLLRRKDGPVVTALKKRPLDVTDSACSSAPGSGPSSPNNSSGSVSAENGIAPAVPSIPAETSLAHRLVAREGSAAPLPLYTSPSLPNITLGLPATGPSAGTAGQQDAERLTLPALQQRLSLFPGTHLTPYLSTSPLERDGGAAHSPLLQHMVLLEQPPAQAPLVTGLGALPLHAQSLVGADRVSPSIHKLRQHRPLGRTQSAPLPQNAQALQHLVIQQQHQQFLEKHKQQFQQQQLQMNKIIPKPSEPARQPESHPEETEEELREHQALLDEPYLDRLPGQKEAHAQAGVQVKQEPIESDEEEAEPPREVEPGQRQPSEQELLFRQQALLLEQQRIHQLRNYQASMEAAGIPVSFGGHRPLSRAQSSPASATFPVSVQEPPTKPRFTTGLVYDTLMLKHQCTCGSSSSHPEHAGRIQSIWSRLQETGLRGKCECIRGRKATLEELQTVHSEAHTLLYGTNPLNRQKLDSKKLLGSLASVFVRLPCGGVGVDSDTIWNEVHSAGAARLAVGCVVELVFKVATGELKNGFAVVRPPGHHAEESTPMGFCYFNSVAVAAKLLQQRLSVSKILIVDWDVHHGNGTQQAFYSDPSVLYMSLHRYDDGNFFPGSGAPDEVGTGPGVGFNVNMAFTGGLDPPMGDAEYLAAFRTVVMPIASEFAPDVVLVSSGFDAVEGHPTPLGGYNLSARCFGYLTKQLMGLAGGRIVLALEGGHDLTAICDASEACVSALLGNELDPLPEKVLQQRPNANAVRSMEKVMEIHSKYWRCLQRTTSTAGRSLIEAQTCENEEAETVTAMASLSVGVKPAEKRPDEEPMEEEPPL

[3] = molecular target: T3, Protein deacetylase HDAC6 (Homo sapiens, UniProt Q9UBN7); experiment: Inhibition of human HDAC6 pre-incubated for 30 mins before substrate addition and measured after 30 mins by HDAC-Glo I/II assay
T3 sequence (Q9UBN7 whole entry): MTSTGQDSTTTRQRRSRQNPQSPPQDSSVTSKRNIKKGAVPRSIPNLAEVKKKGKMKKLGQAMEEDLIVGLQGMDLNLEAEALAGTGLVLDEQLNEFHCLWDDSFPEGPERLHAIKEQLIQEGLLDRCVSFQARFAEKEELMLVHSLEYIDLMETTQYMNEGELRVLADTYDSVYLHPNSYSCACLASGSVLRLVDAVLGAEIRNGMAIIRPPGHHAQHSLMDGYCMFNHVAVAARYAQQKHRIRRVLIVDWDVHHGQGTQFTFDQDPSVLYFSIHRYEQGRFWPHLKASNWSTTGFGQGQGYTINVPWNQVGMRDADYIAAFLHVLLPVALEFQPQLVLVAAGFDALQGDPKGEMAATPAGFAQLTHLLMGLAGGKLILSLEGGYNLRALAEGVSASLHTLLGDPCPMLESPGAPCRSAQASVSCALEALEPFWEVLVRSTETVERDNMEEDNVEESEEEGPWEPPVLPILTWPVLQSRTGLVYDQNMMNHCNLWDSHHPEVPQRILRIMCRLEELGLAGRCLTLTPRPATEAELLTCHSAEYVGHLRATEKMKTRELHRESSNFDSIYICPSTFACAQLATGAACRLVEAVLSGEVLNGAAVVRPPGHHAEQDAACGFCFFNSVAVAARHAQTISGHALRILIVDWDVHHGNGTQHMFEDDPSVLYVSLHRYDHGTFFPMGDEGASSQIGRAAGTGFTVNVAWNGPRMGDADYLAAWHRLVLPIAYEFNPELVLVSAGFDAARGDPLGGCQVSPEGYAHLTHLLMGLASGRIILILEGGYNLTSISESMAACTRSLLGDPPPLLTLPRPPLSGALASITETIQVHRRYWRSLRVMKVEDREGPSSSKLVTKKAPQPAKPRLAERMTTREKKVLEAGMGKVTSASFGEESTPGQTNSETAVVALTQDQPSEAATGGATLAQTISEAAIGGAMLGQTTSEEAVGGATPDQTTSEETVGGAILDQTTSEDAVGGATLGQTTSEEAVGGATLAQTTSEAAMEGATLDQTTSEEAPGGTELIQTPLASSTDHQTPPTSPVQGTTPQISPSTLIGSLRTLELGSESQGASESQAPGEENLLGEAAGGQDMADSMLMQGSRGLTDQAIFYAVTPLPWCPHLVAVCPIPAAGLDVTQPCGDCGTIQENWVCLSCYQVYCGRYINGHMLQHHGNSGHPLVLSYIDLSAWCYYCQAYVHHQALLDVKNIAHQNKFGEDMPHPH

Histone deacetylase 1 = Histone deacetylase 1 (Homo sapiens, UniProt Q13547); experiment: Inhibition of human HDAC1 pre-incubated for 30 mins before substrate addition and measured after 30 mins by HDAC-Glo I/II assay
Histone deacetylase 1, sequence (Q13547 whole entry): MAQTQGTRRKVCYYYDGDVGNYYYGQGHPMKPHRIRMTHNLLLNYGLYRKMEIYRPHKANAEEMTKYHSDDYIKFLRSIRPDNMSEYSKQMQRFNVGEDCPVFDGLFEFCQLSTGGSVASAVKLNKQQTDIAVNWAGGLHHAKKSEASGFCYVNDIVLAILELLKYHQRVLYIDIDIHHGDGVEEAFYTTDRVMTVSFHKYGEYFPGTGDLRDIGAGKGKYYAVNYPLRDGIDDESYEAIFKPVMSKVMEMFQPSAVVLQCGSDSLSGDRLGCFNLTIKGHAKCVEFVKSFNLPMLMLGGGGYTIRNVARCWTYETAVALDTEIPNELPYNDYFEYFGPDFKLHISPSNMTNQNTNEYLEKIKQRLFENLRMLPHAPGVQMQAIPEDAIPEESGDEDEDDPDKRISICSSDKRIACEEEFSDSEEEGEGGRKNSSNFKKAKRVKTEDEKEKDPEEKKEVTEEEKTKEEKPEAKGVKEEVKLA

Histone deacetylase 3 = Histone deacetylase 3 (Homo sapiens, UniProt O15379); experiment: Inhibition of human HDAC3 pre-incubated for 30 mins before substrate addition and measured after 30 mins by HDAC-Glo I/II assay
Histone deacetylase 3, sequence (O15379 whole entry): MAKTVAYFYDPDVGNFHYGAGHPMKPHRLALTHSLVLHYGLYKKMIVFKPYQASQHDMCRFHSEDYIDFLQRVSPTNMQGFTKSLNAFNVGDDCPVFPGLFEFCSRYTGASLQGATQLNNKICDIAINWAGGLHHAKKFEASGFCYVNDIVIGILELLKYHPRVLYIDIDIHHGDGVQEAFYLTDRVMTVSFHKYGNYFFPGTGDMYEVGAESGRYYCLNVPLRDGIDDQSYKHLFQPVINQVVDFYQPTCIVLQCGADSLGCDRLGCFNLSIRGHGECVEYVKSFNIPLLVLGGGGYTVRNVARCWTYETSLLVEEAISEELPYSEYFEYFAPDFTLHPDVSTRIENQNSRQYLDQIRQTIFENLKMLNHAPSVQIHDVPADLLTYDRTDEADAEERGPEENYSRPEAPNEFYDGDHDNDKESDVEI

Compound	inhibition [1]	IC50 (Histone deacetylase 8)	IC50 (Histone deacetylase 9)	IC50 (Histone deacetylase 2)	inhibition [2]	IC50 (Histone deacetylase 4)	IC50 [3]	IC50 (Histone deacetylase 1)	IC50 (Histone deacetylase 3)
CN1C(=O)CC(C)(C)c2cc(C(=O)NCCCCCCC(=O)NO)ccc21	99%	59 nM	120 nM	100 nM	50%	280 nM	130 nM	43 nM	28 nM
CC1(C)CC(=O)Nc2ccc(C(=O)NC[C@H]3CC[C@@H](/C=C/C(=O)NO)CC3)cc21	92%	21 nM	91 nM	310 nM	22%	750 nM	720 nM	190 nM	370 nM
CC1(C)CC(=O)Nc2ccc(C(=O)NC[C@H]3CC[C@H](CCC(=O)NO)CC3)cc21	99%	28 nM	57 nM	35 nM	43%	220 nM	440 nM	35 nM	89 nM
